Source: PMC11866408, “LOPAC library screening identifies suramin as a TRIM21 binder with a unique binding mode revealed by crystal structure” (Acta Crystallographica Section F: Structural Biology …, 2025)

Tests used:
[1] = target: T1, TRIM21 PRYSPRY domain (mouse) (Mus musculus, UniProt Q62191); test: co-crystal structure at […] Å; ITC; type: binding
T1 construct: PRYSPRY domain, residues Val291–Met470, N-terminal His6-tag
T1 sequence (Q62191 291-470): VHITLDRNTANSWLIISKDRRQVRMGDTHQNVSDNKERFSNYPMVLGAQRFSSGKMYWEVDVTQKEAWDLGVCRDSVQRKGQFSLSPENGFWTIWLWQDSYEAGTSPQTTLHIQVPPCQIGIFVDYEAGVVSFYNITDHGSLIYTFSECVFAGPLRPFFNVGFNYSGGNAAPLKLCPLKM

[2] = target: T2, TRIM21 PRYSPRY domain (human) (Homo sapiens, UniProt P19474); test: ITC; DSF shift […] K; type: binding
T2 construct: PRYSPRY domain, residues Val287–Leu465, His6-SUMO tag cleaved
T2 sequence (P19474 287-465): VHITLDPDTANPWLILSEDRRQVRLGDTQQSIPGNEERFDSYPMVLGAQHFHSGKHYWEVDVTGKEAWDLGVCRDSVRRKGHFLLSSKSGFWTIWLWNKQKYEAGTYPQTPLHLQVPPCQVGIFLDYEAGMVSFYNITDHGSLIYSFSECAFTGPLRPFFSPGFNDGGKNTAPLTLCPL

`Cc1ccc(C(=O)Nc2ccc(S(=O)(=O)O)c3cc(S(=O)(=O)O)cc(S(=O)(=O)O)c23)cc1NC(=O)c1cccc(NC(=O)Nc2cccc(C(=O)Nc3cc(C(=O)Nc4ccc(S(=O)(=O)O)c5cc(S(=O)(=O)O)cc(S(=O)(=O)O)c45)ccc3C)c2)c1` [suramin] showed a Kd [1] of roughly 9 µM and a Kd [2] of roughly 8 µM.
